Data as given in US9090632B2, “Bicyclic oxazole and thiazole compounds and their use as allosteric modulators of mGluR5 receptors” (Vanderbilt University, priority 2010, dated 2015).

Biological target: human mGluR5 (Homo sapiens, UniProt P41594)
Assay: Cell-based functional Ca2+ mobilization assay, potentiation of glutamate EC20 response (H10H cell-line)
Details: H10H cell-line expressing recombinant human mGluR5; for Emax / Emax (%): in presence of glutamate EC20, normalized to maximal glutamate response; for EC50 / pEC50: potentiation in presence of glutamate EC20
Protocol: Human embryonic kidney (HEK) cells transfected with rat mGluR5 were plated in clear bottom assay plates for assay in a Functional Drug Screening System (FDSS). In the alternative assay, HEK cells transfected with human mGluR5 were plated for assay in the FDSS. In some cases the HEK cells transfected with human mGluR5 are the H10H cell line. Alternatively, the HEK cells transfected with human mGluR5 are the H12H cell line. […] The cells were loaded with a Ca^2+-sensitive fluorescent dye (e.g., Fluo-4), and the plates were washed and placed in the FDSS instrument. After establishment of a fluorescence baseline for about three seconds, the compounds of the present invention were added to the cells, and the response in cells was measured. Five minutes later, an mGluR5 agonist (e.g., glutamate, 3,5-dihydroxyphenylglycine, or quisqualate) was added to the cells, and the response of the cells was measured. Potentiation of the agonist response of mGluR5 by the compounds in the present invention was observed as an increase in response to non-maximal concentrations of agonist (here, glutamate) in the presence of compound compared to the response to agonist in the absence of compound.
The above described assay can be operated in two modes. In the first mode, a range of concentrations of the present compounds were added to cells, followed by a single fixed concentration of agonist. If a compound acted as a potentiator, an EC50 value for potentiation and a maximum extent of potentiation by the compound at this concentration of agonist was determined by non-linear curve fitting. In the second mode, several fixed concentrations of the present compounds were added to various wells on a plate, followed by a range of concentrations of agonist for each concentration of present compound; the EC50 values for the agonist at each concentration of compound were determined by non-linear curve fitting. A decrease in the EC50 value of the agonist with increasing concentrations of the present compounds (a leftward shift of the agonist concentration-response curve) is an indication of the degree of mGluR5 potentiation at a given concentration of the present compound. An increase in the EC50 value of the agonist with increasing concentrations of the present compounds (a rightward shift of the agonist concentration-response curve) is an indication of the degree of mGluR5 antagonism at a given concentration of the present compound. The second mode also indicates whether the present compounds also affect the maximum response to mGluR5 to agonists.
Human mGluR5a cDNA in pCMV6-XL6 mammalian expression plasmid was purchased from OriGene Technologies, Inc. (catalogue number SC326357) and subcloned into pcDNA3.1(−). Human embryonic kidney (HEK) 293A cells were then transfected with human mGluR5a pcDNA3.1(−) using LipofectAmine 2000 (Invitrogen) and monoclones were selected and tested for functional response using a Ca^2+ mobilization assay. Monoclones were named for the species (“H” for human) plus the location on the plate (e.g. “10H”).
HEK cells transfected with the human mGluR5a receptor were plated at 15,000 cells/well in clear-bottomed poly-D-lysine-coated assay plates (BD Falcon) in glutamate-glutamine-free growth medium and incubated overnight at 37° C. and 5% CO2. The cell-line used to obtain the data reported herein was the H10H cell-line expressing the human mGluR5 receptor. Although the H10H cell-line was used to obtain the data shown herein, the H12H cell-line expressing the human mGluR5 receptor can also be used in these assays. The following day, the growth medium was removed and the cells were washed with assay buffer containing 1× Hank's balanced salt solution (Invitrogen, Carlsbad, Calif.), 20 mM HEPES, 2.5 mM probenecid, pH 7.4 and left with 20 μL of this reagent. Following this step, the cells were loaded with calcium indicator dye, fluo-4 AM, to a final concentration of 2 μM and incubated for 40-45 min at 37° C. […]

Chain of human mGluR5 (P41594 21-1180 isoform P41594-2 limits assumed): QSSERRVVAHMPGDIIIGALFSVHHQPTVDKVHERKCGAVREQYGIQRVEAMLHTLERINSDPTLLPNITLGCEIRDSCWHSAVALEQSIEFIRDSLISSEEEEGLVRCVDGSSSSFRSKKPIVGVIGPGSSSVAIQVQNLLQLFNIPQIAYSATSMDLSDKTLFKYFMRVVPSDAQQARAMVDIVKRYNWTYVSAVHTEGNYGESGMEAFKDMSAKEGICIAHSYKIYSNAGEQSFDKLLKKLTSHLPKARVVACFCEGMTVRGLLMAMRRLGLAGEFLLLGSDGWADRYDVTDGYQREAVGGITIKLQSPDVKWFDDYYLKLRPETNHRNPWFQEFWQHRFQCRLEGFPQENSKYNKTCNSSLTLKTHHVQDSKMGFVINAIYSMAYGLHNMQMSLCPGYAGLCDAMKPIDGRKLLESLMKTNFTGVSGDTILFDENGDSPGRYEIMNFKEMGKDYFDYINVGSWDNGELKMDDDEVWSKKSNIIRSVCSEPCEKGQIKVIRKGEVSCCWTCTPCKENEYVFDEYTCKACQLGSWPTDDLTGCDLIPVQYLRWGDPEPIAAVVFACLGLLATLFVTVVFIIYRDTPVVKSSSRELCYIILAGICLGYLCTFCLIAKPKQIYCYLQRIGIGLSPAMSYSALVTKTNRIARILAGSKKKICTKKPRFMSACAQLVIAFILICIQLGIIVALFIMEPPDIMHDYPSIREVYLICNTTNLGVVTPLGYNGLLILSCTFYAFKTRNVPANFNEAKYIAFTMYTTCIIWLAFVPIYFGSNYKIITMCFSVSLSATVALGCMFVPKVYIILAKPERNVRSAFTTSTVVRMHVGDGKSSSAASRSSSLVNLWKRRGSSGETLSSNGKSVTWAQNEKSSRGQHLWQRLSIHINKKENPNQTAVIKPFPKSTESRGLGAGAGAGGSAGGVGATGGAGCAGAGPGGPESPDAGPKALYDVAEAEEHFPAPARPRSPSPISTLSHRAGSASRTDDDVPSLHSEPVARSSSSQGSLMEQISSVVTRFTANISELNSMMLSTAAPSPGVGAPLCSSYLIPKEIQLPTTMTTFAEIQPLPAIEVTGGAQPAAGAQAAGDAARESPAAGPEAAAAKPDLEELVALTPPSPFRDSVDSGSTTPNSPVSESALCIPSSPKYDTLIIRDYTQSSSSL

Row | Emax [%] | EC50 [nM] | Emax (%) | pEC50 | SMILES | mGluR5 activity type (footnote)
1 | 34 | 339 |  |  | CC(C)(C#N)C(=O)N1CCc2nc(COc3ccccc3)oc2C1 [Example B62] | 
2 | 59 | 813 |  |  | O=C(CCc1ccccc1)N1CCc2nc(COc3ccccc3)oc2C1 [Example B64] | 
3 | 63 | 1200 |  |  | Cc1cccc(OCc2nc3c(o2)CN(C(=O)c2ccc(F)cc2)CC3)c1 [Example B66] | 
4 | 71 | 2400 |  |  | O=C(c1ccc(F)cc1)N1CCc2nc(COc3ccccn3)oc2C1 [Example B68] | 
5 |  |  | 72 | 5.85 | O=C(c1ccc(F)cc1)N1CCc2nc(COc3cccc(Cl)c3)oc2C1 [Example B69] | 
6 |  |  | 73 | 5.78 | O=C(c1ccc(F)cc1)N1CCc2nc(COc3ccncc3)oc2C1 [Example B73] | 
7 | 57 | > 10000 |  |  | O=C(c1ncccc1Cl)N1CCc2nc(COc3ccccc3)oc2C1 [Example B74] | 
8 |  |  | 62 | 6.00 | O=C(N1CCc2nc(COc3ccccc3)oc2C1)C1(c2ccccc2)CC1 [Example B77] | 
9 | 60 | 1910 |  |  | O=C(COc1ccccc1)N1CCc2nc(COc3ccccc3)oc2C1 [Example B80] | 
10 | 63 | 1910 |  |  | CC(Oc1ccccc1)C(=O)N1CCc2nc(COc3ccccc3)oc2C1 (stereo not drawn) [Example B81] | 
11 |  |  | 62 | 5.7 | O=C(C1CCc2cc(F)ccc2O1)N1CCc2nc(COc3ccccc3)oc2C1 (stereo not drawn) [Example B82] | 
12 |  |  | 72 | 5.89 | N#Cc1cc(C(=O)N2CCc3nc(COc4ccccc4)oc3C2)ccn1 [Example B87] | 
13 |  |  | 58 | 5.66 | N#Cc1ccc(C(=O)N2CCc3nc(COc4ccccc4)oc3C2)cc1F [Example B90] | 
14 |  |  | 59 | 5.63 | O=C(c1ccc2nccnc2c1)N1CCc2nc(COc3ccccc3)oc2C1 [Example B91] | 
15 |  |  | 52 | 6.73 | N#Cc1cc(F)cc(C(=O)N2CCc3nc(COc4cccc(F)c4)oc3C2)c1 [Example B92] | 
16 |  |  | 52 | 5.73 | O=C(c1cnc2ccccc2n1)N1CCc2nc(COc3ccccc3)oc2C1 [Example B93] | 
17 | 60.5 | 245 |  |  | O=C(c1cccc(F)c1)N1CCc2nc(COc3ccc(F)cc3)oc2C1 [Example B100] | 
18 |  |  | 66 | 6.34 | COc1ccc(C(=O)N2CCc3nc(COc4ccccc4)oc3C2)s1 [Example B102] | 
19 |  |  | 78 | 6.44 | Cc1ccc(C(=O)N2CCc3nc(COc4ccccc4)oc3C2)n1C [Example B103] | 
20 | 62 | > 10000 |  |  | COCc1ccc(C(=O)N2CCc3nc(COc4ccccc4)oc3C2)o1 [Example B104] | 
21 |  |  | 22 | <4.52 | O=C1CCC(C(=O)N2CCc3nc(COc4ccccc4)oc3C2)N1 (stereo not drawn) [Example B105] | 
22 | 61 | 85.1 |  |  | O=C(c1ccc(Br)o1)N1CCc2nc(COc3ccccc3)oc2C1 [Example B106] | 
23 | 73.5 | 66.1 |  |  | O=C(c1ccc(Cl)s1)N1CCc2nc(COc3ccccc3)oc2C1 [Example B109] | 
24 |  |  | 57 | 6.70 | Cc1ccc(C(=O)N2CCc3nc(COc4ccccc4)oc3C2)s1 [Example B110] | 
25 |  |  | 12 | <4.52 | O=C(c1cc2ccccc2[nH]1)N1CCc2nc(COc3ccccc3)oc2C1 [Example B112] | 
26 |  |  | 45 | 6.58 | Cn1ccc(Cl)c1C(=O)N1CCc2nc(COc3ccccc3)oc2C1 [Example B113] | 
27 |  |  | 46 | <5 | O=C(c1cc[nH]n1)N1CCc2nc(COc3ccccc3)oc2C1 [Example B115] | 

Row | Emax [%] | EC50 [nM] | Emax (%) | pEC50 | SMILES | mGluR5 activity type (footnote)
28 | 33 | > 10000 |  |  | O=C(CC(F)(F)F)N1CCc2nc(COc3ccccc3)oc2C1 [Example B116] | 
29 |  |  | 69 | 6.60 | O=C(c1c[nH]c2ccccc12)N1CCc2nc(COc3ccccc3)oc2C1 [Example B117] | 
30 |  |  | 37 | <5 | O=C(c1cnc(C(F)(F)F)nc1)N1CCc2nc(COc3ccccc3)oc2C1 [Example B118] | 
31 | 22 | > 10000 |  |  | Cc1noc(C(=O)N2CCc3nc(COc4ccccc4)oc3C2)n1 [Example B119] | 
32 | 67 | > 10000 |  |  | O=C(c1cc2ccccc2o1)N1CCc2nc(COc3ccccc3)oc2C1 [Example B120] | 
33 |  |  | 51 | 6.72 | Cc1ccoc1C(=O)N1CCc2nc(COc3ccccc3)oc2C1 [Example B121] | 
34 |  |  | 68 | 6.67 | O=C(c1ccc(C(F)(F)F)o1)N1CCc2nc(COc3ccccc3)oc2C1 [Example B122] | 
35 |  |  | 45 | <5 | O=C(c1cnn[nH]1)N1CCc2nc(COc3ccccc3)oc2C1 [Example B125] | 
36 | 72 | 389 |  |  | O=C(c1n[nH]c2ccccc12)N1CCc2nc(COc3ccccc3)oc2C1 [Example B126] | 
37 |  |  | 25 | <4.52 | O=C(c1ccc(F)cc1)N1CCc2nc(COc3ccc(C(F)(F)F)cc3)oc2C1 [Example B128] | 
38 | 27 | > 30200 |  |  | O=C(c1ccc(F)cc1)N1CCc2nc(COc3ccc(Br)cc3)oc2C1 [Example B129] | 
39 | 22 | > 30200 |  |  | O=C(c1ccc(F)cc1)N1CCc2nc(COc3ccccc3C(F)(F)F)oc2C1 [Example B130] | 
40 | 24 | > 30200 |  |  | O=C(c1ccc(F)cc1)N1CCc2nc(CCc3ccccc3)oc2C1 [Example B131, 5-[(4-fluorophenyl)carbonyl]-2-(2-phenylethyl)-4,5,6,7-tetrahydro[1,3]oxazolo[5,4-c]pyridine] | 
41 | 49 | > 10000 |  |  | Cc1ccc(C(=O)N2CCc3nc(COc4ccccc4)oc3C2)cn1 [Example B132] | 
42 | 32 | > 10000 |  |  | Cc1cccc(OCc2nc3c(o2)CN(C(=O)c2ccc(F)cc2)CC3)n1 [Example B133] | 
43 | 61 | 1200 |  |  | O=C(Cc1ccc(F)cc1)N1CCc2nc(COc3ccccc3)oc2C1 [Example B134] | 
44 | 36 | > 10000 |  |  | Cc1ncc(C(=O)N2CCc3nc(COc4ccccc4)oc3C2)cn1 [Example B135] | 
45 |  |  | 45 | <5 | N#Cc1cc(F)cc(OCc2nc3c(o2)CN(C(=O)c2ccc(F)cc2)CC3)c1 [Example B136] | 
46 |  |  | 24 | <4.52 | N#Cc1cc(Br)cc(OCc2nc3c(o2)CN(C(=O)c2ccc(F)cc2)CC3)c1 [Example B137] | 
47 |  |  | 27 | <4.52 | COCC(=O)N1CCc2nc(COc3ccccc3)oc2C1 [Example B138] | 
48 | 10 | > 30200 |  |  | O=C(c1ccc(=O)[nH]c1)N1CCc2nc(COc3ccccc3)oc2C1 [Example B139] | 
49 |  |  | 58 | 5.77 | CC(C)(C)OC(=O)NC(C(=O)N1CCc2nc(COc3ccccc3)oc2C1)C(C)(C)C (stereo not drawn) [Example B140] | 
50 |  |  |  |  | CC(C)(C)C(=O)N1CCc2nc(COc3ccccc3)oc2C1 [Example B142] | **The indicated compound is a mGluR5 antagonist.
51 | 68 |  |  | 5.85 | O=C(c1n[nH]c2ccncc12)N1CCc2nc(COc3ccccc3)oc2C1 [Example B143] | 
52 | 39 |  |  | >5 | O=C(c1n[nH]c2cccnc12)N1CCc2nc(COc3ccccc3)oc2C1 [Example B144] | 
53 | 50 | > 10000 |  |  | O=C(c1c[nH]c2cccnc12)N1CCc2nc(COc3ccccc3)oc2C1 [Example B145] | 
